This assay has as its system trypsin from L. alexandri pyloric cecum (Pacamã trypsin). The assay is described as follows: p-nitroaniline release at […] nm, Lineweaver-Burk. Particulars: optimum pH (9.0) and temperature (50 °C), 90 min, BAPNA 0-6.0 mM. The format is biochemical, Lophiosilurus alexandri.

These results are taken from PMC5613698 (Biochemistry and Biophysics Reports, 2016).

The term Km denotes the concentration of substrate that gives half-maximal velocity.

Structures can show the parent of a compound that is named as a salt.

For the compound `N=C(N)NCCCC(NC(=O)c1ccccc1)C(=O)Nc1ccc([N+](=O)[O-])cc1` (racemic) [BAPNA, Nα-Benzoyl-D,L-arginine 4-nitroanilide hydrochloride], the Km was determined as 517 µM.
